Results on 2 compounds are retold here after paper PMC12263422, “Cryo-EM structure of the human THIK-1 K2P K^+ channel reveals a lower Y gate regulated by lipids and anesthetics” (Nature Structural & Molecular Biology, 2025).

Several values for one entry are separate records, joined by “and”; a condition that tells them apart may be missing. Identical values can stand only once. Like-named read-outs stand apart in the source and are kept apart here.

This experiment deals with T1, Human K2P13.1 THIK-1 (WT) (Homo sapiens, UniProt Q9HB14).
T1 construct: expressed in transfected cells; host or cells: Xenopus oocytes (mRNA injection)
T1 sequence (Q9HB14 1-408): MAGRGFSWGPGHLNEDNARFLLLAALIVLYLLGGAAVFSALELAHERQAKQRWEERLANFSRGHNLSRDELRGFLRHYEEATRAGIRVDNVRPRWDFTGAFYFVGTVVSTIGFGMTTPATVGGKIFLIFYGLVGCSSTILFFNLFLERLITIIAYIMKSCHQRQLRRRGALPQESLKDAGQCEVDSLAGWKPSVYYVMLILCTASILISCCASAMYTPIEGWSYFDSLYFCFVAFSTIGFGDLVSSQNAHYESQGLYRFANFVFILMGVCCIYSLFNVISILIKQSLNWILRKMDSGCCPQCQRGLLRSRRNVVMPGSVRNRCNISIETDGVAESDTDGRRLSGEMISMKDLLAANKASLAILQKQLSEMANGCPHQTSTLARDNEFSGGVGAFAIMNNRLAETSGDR
The experiment in a line: Macroscopic inside-out excised patch recordings from Xenopus oocytes expressing WT THIK-1; compounds applied to the intracellular side. Conditions: for inhibition at 152 µM: halothane 0.152 mM; for inhibition at 304 µM: halothane 0.304 mM; for inhibition at 1520 µM: halothane 1.52 mM; for inhibition at 3040 µM: halothane 3.04 mM; for inhibition at 15200 µM: halothane 15.2 mM; for Fold activation: THIK-1 WT (unstimulated). Type of experiment: cell-based.

Where [1] appears, read: THIK-1 WT (TPenA), presence of 0.5 mM TPenA.
The mark [2] stands for this setting: THIK-1 WT (oleoyl-CoA), 5.0 µM oleoyl-CoA.

Where the note is “THIK-1 WT”, `FC(F)(F)C(Cl)Br` (stereo not shown) [halothane] had an inhibition at 152 µM of 11%, an inhibition at 304 µM of 18.8%, an inhibition at 1520 µM of 41.4% and an inhibition at 3040 µM of 57.6%. Moreover, where the note is “THIK-1 WT”, at 15200 µM the inhibition was 83.9%. Moreover, under setting [1], the inhibition at 152 µM was 6.45%, the inhibition at 304 µM turned out to be 13%, the inhibition at 1520 µM came out at 23.2% and the inhibition at 3040 µM is 30%. The inhibition at 15200 µM under setting [1] stood at 57.9%. Moreover, under setting [2], at 304 µM the inhibition was 4.78%, testing at 1520 µM gave an inhibition of 19.9%, testing at 3040 µM gave an inhibition of 38.9% and at 15200 µM the inhibition was 69.3%.
On to `CCCCC/C=C\C/C=C\CCCCCCCC(=O)O` [linoleic acid], for which the Fold activation came out at 0.98 (1 µM linoleic acid); 1.75 (10 µM linoleic acid); 2.77 (30 µM linoleic acid); 3.38 (50 µM linoleic acid); 3.62 (100 µM linoleic acid); 4.27 (150 µM linoleic acid). The compound further gave a Fold activation (200 µM linoleic acid) of 4.21. The “Fold activation with 30.0 µM linoleic acid” value was 3.150 and 3.640 and 4.490 and 2.650 and 2.000 and 1.880 and 1.350 and 1.220 and 3.650 and 3.260 and 3.220 (THIK-1 WT, individual recordings); 2.77 (THIK-1 WT, mean). Moreover, the EC50 is, setting by setting: (THIK-1 WT, mean, read-out: Linoleic acid EC50) 28.5 µM; (applied intracellularly to excised patches, WT, read-out: half-maximal effective concentration (activation)) 29 ± 5 µM.
